What was measured:
Type in all cases: in vivo
[1] = system: velvetleaf (Abutilon theophrasti); test: Preemergence herbicidal activity, velvetleaf; settings: Preemergence
Summary of the method: (§1)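 Step one: plant crop and weed seeds in soil flats. Step two: spray the acetone-dissolved, water-diluted compound (carrier 50 gal/A, dose in lb/A) immediately for preemergence, or after two weeks' growth for postemergence. Step three: about two weeks on, rate phytotoxicity as percent killed.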

wheat (Triticum sativum) [2] = test: Preemergence herbicidal activity, wheat
Procedure: (§2) Using the procedure described below, compounds of the invention are evaluated for control of several of the following plant species:
(§3) The following est procedure is employed. Seeds of selected crops and weeds are planted in soil in flats. For preemergence tests, the flats are treated with the test compound immediately after the planting. For postemergence tests, the seeds are allowed to germinate, and after two weeks the flats are treated with the test compound. The compound to be evaluated is dissolved in acetone, diluted with water, and sprayed over the flats using a carrier volume equivalent to 50 gallons per acre at the rate of application (pounds per acre, lb/A.) specified in the tables. About two weeks after the application of the test compound, the state of growth of the plants is observed and the phytotoxic effect of the compound is evaluated. Tables III and IV give the average percent control achieved by test compounds in terms of the percent of the plants which are killed by the compounds.

wheat (Triticum sativum) [3] = test: Postemergence herbicidal activity, wheat
Procedure: as §2, §3

[4] = system: barnyardgrass (Echinochloa crusgalli); test: Postemergence herbicidal activity, barnyardgrass; settings: Postemergence
Summary of the method: (§4)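 Acetone solution diluted w/ water; spray, carrier 50 gal/acre equivalent; rate in lb/A. Pre: flats sprayed right after sowing. Post: sprayed 2 wk after germination. Weed control scored.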

rice (Oryza sativa) [5] = test: Postemergence herbicidal activity, rice
Procedure: as §2, §3

[6] = system: downybrome (Bromus tectorum); test: Preemergence herbicidal activity, downybrome; settings: Preemergence
Summary of the method: as §1

[7] = system: tomato (Lycopersicon esculentum); test: Postemergence herbicidal activity, tomato; settings: Postemergence
Summary of the method: as §1

foxtail (Setaria spp.) [8] = test: Preemergence herbicidal activity, foxtail; settings: Preemergence
Summary of the method: as §1

[9] = system: barnyardgrass (Echinochloa crusgalli); test: Preemergence herbicidal activity, barnyardgrass; settings: Preemergence
Summary of the method: as §4

[10] = system: tomato (Lycopersicon esculentum); test: Preemergence herbicidal activity, tomato; settings: Preemergence
Summary of the method: as §1

foxtail (Setaria spp.) [11] = test: Postemergence herbicidal activity, foxtail; settings: Postemergence
Summary of the method: as §1

soybean (Glycine max) [12] = test: Postemergence herbicidal activity, soybean
Procedure: as §2, §3

corn (Zea mays) = test: Preemergence herbicidal activity, corn
Procedure: as §2, §3

wild oats (Avena fatua) [13] = test: Postemergence herbicidal activity, wild oats; settings: Postemergence
Summary of the method: as §1

wild oats (Avena fatua) [14] = test: Preemergence herbicidal activity, wild oats; settings: Preemergence
Summary of the method: as §1

[15] = system: crabgrass (Digitaria spp.); test: Preemergence herbicidal activity, crabgrass
Procedure: as §2, §3

[16] = system: downybrome (Bromus tectorum); test: Postemergence herbicidal activity, downybrome; settings: Postemergence
Summary of the method: as §1

soybean (Glycine max) [17] = test: Preemergence herbicidal activity, soybean
Procedure: as §2, §3

rice (Oryza sativa) [18] = test: Preemergence herbicidal activity, rice
Procedure: as §2, §3

CCOC(=O)C(C)Oc1ccc(Oc2ccc(C(F)(F)F)cc2Cl)cc1 (stereo not drawn) [Example 1, Ethyl 2-[4-(2-chloro-4-trifluoromethylphenoxy)phenoxy] propionate]
% control, Velvetleaf ([1]; 1/2 lb/A (Table III)): 0%
% control, Velvetleaf ([1]; 1 lb/A (Table III)): 0%
% control, Velvetleaf ([1]; 2 lb/A (Table III)): 0%
% Control, Wheat (wheat (Triticum sativum) [2]; 1/2 lb/A (Table III)): 0%
% Control, Wheat (wheat (Triticum sativum) [2]; 1 lb/A (Table III)): 0%
% Control, Wheat (wheat (Triticum sativum) [2]; 2 lb/A (Table III)): 0%
% Control, Wheat (wheat (Triticum sativum) [3]; 1/2 lb/A (Table III)): 80%
% Control, Wheat (wheat (Triticum sativum) [3]; 1 lb/A (Table III)): 90%
% Control, Wheat (wheat (Triticum sativum) [3]; 2 lb/A (Table III)): 95%
% control, Barnyardgrass ([4]; 1/2 lb/A (Table III)): 100%
% control, Barnyardgrass ([4]; 1 lb/A (Table III)): 100%
% control, Barnyardgrass ([4]; 2 lb/A (Table III)): 100%
% Control, Rice (rice (Oryza sativa) [5]; 1/2 lb/A (Table III)): 70%
% Control, Rice (rice (Oryza sativa) [5]; 1 lb/A (Table III)): 99%
% Control, Rice (rice (Oryza sativa) [5]; 2 lb/A (Table III)): 90%
% control, Downybrome ([6]; 1/2 lb/A (Table III)): 0%
% control, Downybrome ([6]; 1 lb/A (Table III)): 80%
% control, Downybrome ([6]; 2 lb/A (Table III)): 90%
% control, Tomato ([7]; 1/2 lb/A (Table III)): 10%
% control, Tomato ([7]; 1 lb/A (Table III)): 30%
% control, Tomato ([7]; 2 lb/A (Table III)): 80%
% control, Foxtail (foxtail (Setaria spp.) [8]; 1/2 lb/A (Table III)): 100%
% control, Foxtail (foxtail (Setaria spp.) [8]; 1 lb/A (Table III)): 100%
% control, Foxtail (foxtail (Setaria spp.) [8]; 2 lb/A (Table III)): 100%
% control, Barnyardgrass ([9]; 1/2 lb/A (Table III)): 99%
% control, Barnyardgrass ([9]; 1 lb/A (Table III)): 100%
% control, Barnyardgrass ([9]; 2 lb/A (Table III)): 100%
% control, Tomato ([10]; 1/2 lb/A (Table III)): 0%
% control, Tomato ([10]; 1 lb/A (Table III)): 0%
% control, Tomato ([10]; 2 lb/A (Table III)): 0%
% control, Foxtail (foxtail (Setaria spp.) [11]; 1/2 lb/A (Table III)): 100%
% control, Foxtail (foxtail (Setaria spp.) [11]; 1 lb/A (Table III)): 100%
% control, Foxtail (foxtail (Setaria spp.) [11]; 2 lb/A (Table III)): 100%
% Control, Soybean (soybean (Glycine max) [12]; 1/2 lb/A (Table III)): 20%
% Control, Soybean (soybean (Glycine max) [12]; 1 lb/A (Table III)): 30%
% Control, Soybean (soybean (Glycine max) [12]; 2 lb/A (Table III)): 40%
% Control, Corn (corn (Zea mays); 1/2 lb/A (Table III)): 0%
% Control, Corn (corn (Zea mays); 1 lb/A (Table III)): 60%
% Control, Corn (corn (Zea mays); 2 lb/A (Table III)): 99%
% Control, Wild Oats (wild oats (Avena fatua) [13]; 1/2 lb/A (Table III)): 100%
% Control, Wild Oats (wild oats (Avena fatua) [13]; 1 lb/A (Table III)): 100%
% Control, Wild Oats (wild oats (Avena fatua) [13]; 2 lb/A (Table III)): 100%
% Control, Wild Oats (wild oats (Avena fatua) [14]; 1/2 lb/A (Table III)): 0%
% Control, Wild Oats (wild oats (Avena fatua) [14]; 1 lb/A (Table III)): 60%
% Control, Wild Oats (wild oats (Avena fatua) [14]; 2 lb/A (Table III)): 99%
% Control, Crabgrass ([15]; 1/2 lb/A (Table III)): 100%
% Control, Crabgrass ([15]; 1 lb/A (Table III)): 100%
% Control, Crabgrass ([15]; 2 lb/A (Table III)): 100%
% control, Downybrome ([16]; 1/2 lb/A (Table III)): 70%
% control, Downybrome ([16]; 1 lb/A (Table III)): 80%
% control, Downybrome ([16]; 2 lb/A (Table III)): 90%
% Control, Soybean (soybean (Glycine max) [17]; 1/2 lb/A (Table III)): 0%
% Control, Soybean (soybean (Glycine max) [17]; 1 lb/A (Table III)): 0%
% Control, Soybean (soybean (Glycine max) [17]; 2 lb/A (Table III)): 0%
% Control, Rice (rice (Oryza sativa) [18]; 1/2 lb/A (Table III)): 0%
% Control, Rice (rice (Oryza sativa) [18]; 1 lb/A (Table III)): 80%
% Control, Rice (rice (Oryza sativa) [18]; 2 lb/A (Table III)): 100%

From patent publication US4335249A, “Herbicidal diphenyl ethers, sulfides, sulfoxides and sulfones” (Rohm and Haas Company, priority 1976, dated 1982)
